Reference: US20200361895A1, “NOVEL SULFONAMIDE CARBOXAMIDE COMPOUNDS” (Inflazome Limited, priority 2017, published 2020)
pIC50: −log10 of the molar value. Structures can show the parent of a compound that is named as a salt.

Key:
NLRP3 [1] = molecular target: T1, NLRP3 (Homo sapiens, UniProt Q96P20); assay: Human whole blood IL1β release assay (LPS + nigericin, AlphaLisa IL-1β; HWB IC50); format: cell-based; parameters: Human whole blood in Li-heparin tubes was obtained from healthy donors from a volunteer donor panel; from tissue; host or cells: human whole blood from healthy donors; conditions: IL-1β release
T1 sequence (Q96P20 whole entry): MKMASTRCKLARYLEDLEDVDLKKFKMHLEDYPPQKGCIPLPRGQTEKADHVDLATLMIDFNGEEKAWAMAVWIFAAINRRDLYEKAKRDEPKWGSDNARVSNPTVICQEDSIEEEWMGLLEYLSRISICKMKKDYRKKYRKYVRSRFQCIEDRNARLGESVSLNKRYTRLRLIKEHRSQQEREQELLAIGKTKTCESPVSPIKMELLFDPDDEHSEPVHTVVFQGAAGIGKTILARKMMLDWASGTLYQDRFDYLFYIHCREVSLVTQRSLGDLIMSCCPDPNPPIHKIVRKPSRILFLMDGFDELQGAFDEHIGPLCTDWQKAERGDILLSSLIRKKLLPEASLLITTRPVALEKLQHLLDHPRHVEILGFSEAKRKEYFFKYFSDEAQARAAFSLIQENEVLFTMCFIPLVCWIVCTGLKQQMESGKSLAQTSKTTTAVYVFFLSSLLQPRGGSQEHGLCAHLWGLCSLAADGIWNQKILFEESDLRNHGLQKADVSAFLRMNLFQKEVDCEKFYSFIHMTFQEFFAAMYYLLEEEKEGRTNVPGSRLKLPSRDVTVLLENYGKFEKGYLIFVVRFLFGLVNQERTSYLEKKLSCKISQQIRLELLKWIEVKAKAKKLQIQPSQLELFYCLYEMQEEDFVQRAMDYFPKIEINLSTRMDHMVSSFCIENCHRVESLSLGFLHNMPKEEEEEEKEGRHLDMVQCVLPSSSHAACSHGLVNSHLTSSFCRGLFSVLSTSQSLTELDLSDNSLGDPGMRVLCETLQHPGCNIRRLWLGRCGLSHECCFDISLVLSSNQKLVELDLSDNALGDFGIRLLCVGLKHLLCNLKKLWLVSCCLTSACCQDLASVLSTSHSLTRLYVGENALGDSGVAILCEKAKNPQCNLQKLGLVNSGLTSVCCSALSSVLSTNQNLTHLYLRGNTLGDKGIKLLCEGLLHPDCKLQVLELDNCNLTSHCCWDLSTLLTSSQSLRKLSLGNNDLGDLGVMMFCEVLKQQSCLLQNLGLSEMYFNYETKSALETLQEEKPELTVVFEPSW
Description: For systemic delivery, the ability to inhibit NLRP3 when the compounds are present within the bloodstream is of great importance. For this reason, the NLRP3 inhibitory activity of a number of compounds in human whole blood was investigated in accordance with the following protocol.
Human whole blood in Li-heparin tubes was obtained from healthy donors from a volunteer donor panel. • 1. Plate out 80 μl of whole blood containing 1 μg/ml of LPS in 96-well, clear bottom cell culture plate (Corning #3585) • 2. Add 10 μl compound (8 points half-log dilution with 10 μM top dose) or vehicle (DMSO 0.1% FAC) to the appropriate wells • 3. Incubate for 3 hrs at 37° C., 5% CO2 • 4. Add 10 μl nigericin (Sigma #N7143) (10 μM FAC) to all wells • 5. Incubate for 1 hr at 37° C., 5% CO2 • 6. At the end of the incubation period, spin plates at 300×g for 5 mins to pellet cells and remove 20 μl of supernatant and add to 96-well v-bottom plates for IL-1β analysis (note: these plates containing the supernatants can be stored at −80° C. to be analysed at a later date) • 7. IL-1β was measured according to the manufacturer protocol (Perkin Elmer-AlphaLisa IL-1 Kit AL220F-5000) • 8. IC50 data is fitted to a non-linear regression equation (log inhibitor vs response-variable slope 4-parameters)

NLRP3 [2] = molecular target: T1, NLRP3; assay: THP-1 cells pyroptosis assay (LPS + nigericin, resazurin readout; THP IC50); format: cell-based; parameters: Seed THP-1 cells (25,000 cells/well) containing 1.0 μg/ml LPS in 40 μl of RPMI medium; host or cells: THP-1 cells
Procedure, shortened: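 IC50 from 4-parameter fit of resazurin fluorescence (100 μM, 1-2 hrs), reflecting surviving cells after pyroptosis. LPS-primed (1 μg/ml) THP-1 cells in FBS-free RPMI got compound for 3 hrs at 37° C (top 10 μM, half-log, 8 points), then nigericin 5 μM for 1 hr.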

Compound | pIC50 (NLRP3 [1]) | pIC50 (NLRP3 [2])
CCN1CCC(S(=O)(=O)NC(=O)Nc2c(-c3ccncc3)ccc3c2CCC3)CC1 [Example 101, 1-Ethyl-N-((5-(pyridin-4-yl)-2,3-dihydro-1H-inden-4-yl)carbamoyl)piperidine-4-sulfonamide, potassium salt] | ≥ 6.00 | –
CCN(CCCS(=O)(=O)NC(=O)Nc1c(-c2ccnc(OC)c2)ccc2c1CCC2)Cc1ccccc1 [Example 152, 3-(Benzyl(ethyl)amino)-N-((5-(2-methoxypyridin-4-yl)-2,3-dihydro-1H-inden-4-yl)carbamoyl)propane-1-sulfonamide] | – | ≥ 6.30
COCCCS(=O)(=O)NC(=O)Nc1c(-c2ccnc(C#N)c2)cc(F)cc1C(C)C [Example 154, N-((2-(2-Cyanopyridin-4-yl)-4-fluoro-6-isopropylphenyl)carbamoyl)-3-methoxypropane-1-sulfonamide] | – | ≥ 5.30
COCCCS(=O)(=O)NC(=O)Nc1c(-c2ccnc(OC)c2)cc(F)cc1C(C)C [Example 155, N-((4-Fluoro-2-isopropyl-6-(2-methoxypyridin-4-yl)phenyl)carbamoyl)-3-methoxypropane-1-sulfonamide] | – | ≥ 6.30
COCCCS(=O)(=O)NC(=O)Nc1c(-c2ccnc(OC)c2)ccc2c1CCC2 [Example 156, 3-Methoxy-N-((5-(2-methoxypyridin-4-yl)-2,3-dihydro-1H-inden-4-yl)carbamoyl)propane-1-sulfonamide] | – | ≥ 6.30
COCCCS(=O)(=O)NC(=O)Nc1c(-c2ccncc2)cc(F)c2c1CCC2 [Example 157, N-((7-Fluoro-5-(pyridin-4-yl)-2,3-dihydro-1H-inden-4-yl)carbamoyl)-3-methoxypropane-1-sulfonamide] | – | ≥ 5.30
CN1CCC(CS(=O)(=O)NC(=O)Nc2c(-c3ccncc3)cc(F)c3c2CCC3)C1 (stereo not shown) [Example 165, N-((7-Fluoro-5-(pyridin-4-yl)-2,3-dihydro-1H-inden-4-yl)carbamoyl)-1-(1-methylpyrrolidin-3-yl) methanesulfonamide] | – | ≥ 5.30
CCn1nc(S(=O)(=O)NC(=O)Nc2c(-c3cccc(OC)c3)ccc3c2CCC3)cc1CN(C)C [Example 194, 5-((Dimethylamino)methyl)-1-ethyl-N-((5-(3-methoxyphenyl)-2,3-dihydro-1H-inden-4-yl)carbamoyl)-1H-pyrazole-3-sulfonamide] | – | ≥ 6.00
O=C(Nc1c(C2CCOCC2)ccc2c1CCC2)NS(=O)(=O)c1ccn(C2CC2)n1 [Example 254, 1-Cyclopropyl-N-((5-(tetrahydro-2H-pyran-4-yl)-2,3-dihydro-1H-inden-4-yl)carbamoyl)-1H-pyrazole-3-sulfonamide] | – | ≥ 5.30
COc1cc(-c2ccc3c(c2NC(=O)NS(=O)(=O)OC(C)C)CCC3)ccn1 [Example 256, Isopropyl (5-(2-methoxypyridin-4-yl)-2,3-dihydro-1H-inden-4-yl)carbamoylsulfamate, sodium salt] | – | ≥ 6.00
Cn1cc(-c2ccc3c(c2NC(=O)NS(=O)(=O)c2ccn(C4CC4)n2)CCC3)ccc1=O [Example 268, 1-Cyclopropyl-N-((5-(1-methyl-6-oxo-1,6-dihydropyridin-3-yl)-2,3-dihydro-1H-inden-4-yl)carbamoyl)-1H-pyrazole-3-sulfonamide] | – | ≥ 5.30
Cn1ccc(-c2ccc3c(c2NC(=O)NS(=O)(=O)c2ccn(C4CC4)n2)CCC3)cc1=O [Example 272, 1-Cyclopropyl-N-((5-(1-methyl-2-oxo-1,2-dihydropyridin-4-yl)-2,3-dihydro-1H-inden-4-yl)carbamoyl)-1H-pyrazole-3-sulfonamide, sodium salt] | – | ≥ 5.30
O=C(Nc1c2c(nn1-c1ccncc1)CCC2)NS(=O)(=O)c1ccn(C2CC2)n1 [Example 273, 1-Cyclopropyl-N-((2-(pyridin-4-yl)-2,4,5,6-tetrahydrocyclopenta[c]pyrazol-3-yl)carbamoyl)-1H-pyrazole-3-sulfonamide] | – | ≥ 5.30
CC(C)n1ccc(S(=O)(=O)NC(=O)Nc2c(-c3ccnc(OC4CCN(C)C4)c3)ccc3c2CCC3)n1 (stereo not shown) [Example 301, 1-Isopropyl-N-((5-(2-((1-methylpyrrolidin-3-yl)oxy)pyridin-4-yl)-2,3-dihydro-1H-inden-4-yl)carbamoyl)-1H-pyrazole-3-sulfonamide, sodium salt] | – | ≥ 6.00
COc1cc(-c2ccc3c(c2NC(=O)NS(=O)(=O)c2ccc(C(=O)N(C)C)cc2)CCO3)ccn1 [Example 309, 4-(N-((5-(2-Methoxypyridyl-4-yl)-2,3-dihydrobenzofuran-4-yl)carbamoyl)sulfamoyl)-N,N-dimethylbenzamide, sodium salt] | – | ≥ 5.30
CC(C)c1cc(F)cc(-c2ccnc(C#N)c2)c1NC(=O)NS(=O)(=O)N1CC2CCN(C)C2C1 (stereo not shown) [Example 319, N-((2-(2-Cyanopyridin-4-yl)-4-fluoro-6-isopropylphenyl)carbamoyl)-1-methylhexahydropyrrolo[3,4-b]pyrrole-5(1H)-sulfonamide] | – | ≥ 5.00
COc1cc(-n2nc3c(c2NC(=O)NS(=O)(=O)c2cc(C(C)(C)O)co2)CCC3)ccn1 [Example 322, 4-(2-Hydroxypropan-2-yl)-N-((2-(2-methoxypyridin-4-yl)-2,4,5,6-tetrahydrocyclopenta[c]pyrazol-3-yl)carbamoyl)furan-2-sulfonamide] | – | ≥ 5.30

Other lines, results leading:

pIC50 (NLRP3 [1]) | pIC50 (NLRP3 [2]) | Compound
– | ≥ 5.30 | CC(C)c1cccc(-n2ccnc2)c1NC(=O)NS(=O)(=O)c1ccn(C(C)C)n1 [Example 204, N-((2-(1H-Imidazol-1-yl)-6-isopropylphenyl)carbamoyl)-1-isopropyl-1H-pyrazole-3-sulfonamide]
– | ≥ 5.30 | CC(C)n1ccc(S(=O)(=O)NC(=O)Nc2c(-c3cccnc3)cc(F)cc2-c2cccnc2)n1 [Example 208, N-((4-Fluoro-2,6-di(pyridin-3-yl)phenyl)carbamoyl)-1-isopropyl-1H-pyrazole-3-sulfonamide]
– | ≥ 5.30 | COc1cc(-c2ccc3ncccc3c2NC(=O)NS(=O)(=O)c2ccn(C(C)C)n2)ccn1 [Example 212, 1-Isopropyl-N-((6-(2-methoxypyridin-4-yl)quinolin-5-yl)carbamoyl)-1H-pyrazole-3-sulfonamide]
– | ≥ 5.00 | COc1cc(-c2ccc3ccncc3c2NC(=O)NS(=O)(=O)c2ccn(C(C)C)n2)ccn1 [Example 217, 1-Isopropyl-N-((7-(2-methoxypyridin-4-yl)isoquinolin-8-yl)carbamoyl)-1H-pyrazole-3-sulfonamide]
– | ≥ 5.00 | Cc1cc(-c2ccc3c(c2NC(=O)NS(=O)(=O)c2ccn(C(C)C)n2)CCC3)n(C)n1 [Example 220, N-((5-(1,3-Dimethyl-1H-pyrazol-5-yl)-2,3-dihydro-1H-inden-4-yl)carbamoyl)-1-isopropyl-1H-pyrazole-3-sulfonamide]
– | ≥ 5.30 | COc1cc(-c2ccc3c(c2NC(=O)NS(=O)(=O)c2ccn(C(C)C)n2)CCC3)cc(C)n1 [Example 238, 1-Isopropyl-N-((5-(2-methoxy-6-methylpyridin-4-yl)-2,3-dihydro-1H-inden-4-yl)carbamoyl)-1H-pyrazole-3-sulfonamide, sodium salt]
– | ≥ 5.30 | CC(C)n1ccc(S(=O)(=O)NC(=O)Nc2c(-c3cncn3C)ccc3c2CCC3)n1 [Example 240, 1-Isopropyl-N-((5-(1-methyl-1H-imidazol-5-yl)-2,3-dihydro-1H-inden-4-yl)carbamoyl)-1H-pyrazole-3-sulfonamide]
– | ≥ 5.30 | CC(C)n1ccc(S(=O)(=O)NC(=O)Nc2c(-c3cncnc3)ccc3c2CCC3)n1 [Example 241, 1-Isopropyl-N-((5-(pyrimidin-5-yl)-2,3-dihydro-1H-inden-4-yl)carbamoyl)-1H-pyrazole-3-sulfonamide]
– | ≥ 5.30 | CC(C)n1ccc(S(=O)(=O)NC(=O)Nc2c(-c3ccnc4c3CCO4)ccc3c2CCC3)n1 [Example 283, N-((5-(2,3-Dihydrofuro[2,3-b]pyridin-4-yl)-2,3-dihydro-1H-inden-4-yl)carbamoyl)-1-isopropyl-1H-pyrazole-3-sulfonamide]
– | ≥ 6.00 | CC(=O)Nc1cc(-c2ccc3c(c2NC(=O)NS(=O)(=O)c2ccn(C(C)C)n2)CCC3)ccn1 [Example 297, N-(4-(4-(3-((1-Isopropyl-1H-pyrazol-3-yl)sulfonyl)ureido)-2,3-dihydro-1H-inden-5-yl)pyridin-2-yl)acetamide, sodium salt]
– | ≥ 5.30 | CC(C)n1ccc(S(=O)(=O)NC(=O)Nc2c(-c3ccnc(OCCN(C)C)c3)ccc3c2CCC3)n1 [Example 302, N-((5-(2-(2-(Dimethylamino)ethoxy)pyridin-4-yl)-2,3-dihydro-1H-inden-4-yl)carbamoyl)-1-isopropyl-1H-pyrazole-3-sulfonamide, sodium salt]
